Consider two compounds from US5190753A, “3-phenyl-5,6-dihydrobenziciacridine-7-carboxylic acids and related compounds as immunosuppressive agents” (Du Pont Merck Pharmaceutical Company, priority 1992, dated 1993).

For data set [1] the following is noted: clinical use; cited from earlier work.
The test system of data set [2] is human mixed lymphocyte reaction (peripheral blood mononuclear cells, PBMC). Nature of the data set: Human mixed lymphocyte reaction (3H-thymidine incorporation). In kind it is cell-based. How it is done:
Blood was obtained by venipuncture from two nonrelated human donors. Peripheral blood mononuclear cells (PBMC) were isolated from these samples by using the Leuco Prep procedure (Becton-Dickinson). PBMC were washed twice in phosphate buffered saline (without calcium and magnesium) and the separate cell isolations were adjusted to the appropriate concentrations in media (RPMI 1640) supplemented with 10% human AB serum and […] gentamicin. Cells from donor A (2×10^5) were incubated with cells from donor B (2×10^5) in 96 well round bottom microliter plates at 37° C., 5% CO2 for 6 days. Eighteen hours prior to harvesting cells from the plates, all wells were pulsed with 1 μCi of ^3 H-thymidine. Cells from the plates were harvested on day-6 and 3H-thymidine incorporation was determined using a scintillation counter.
The human mixed lymphocyte reaction model, is an in vitro model for transplantation rejection.

For data set [3], the system named is contact sensitivity response to 2,4-dinitrofluorobenzene (DNFB) in Balb/c female mice. Nature of the data set: Contact sensitivity response to DNFB in mice (delayed-type hypersensitivity, ear swelling). In kind it is in vivo. How it is done:
Balb/c female mice (.perspectiveto. 20 g; Charles River) were sensitized on the shaved abdomen with 25 μl of 0.5% 2,4-dinitrofluorobenzene (DNFB, Eastman Kodak Co.) in a vehicle of 4:1 acetone:olive oil on days 0 and 1. Mice were ear challenged with 20 μl of 0.2% DNFB in a vehicle of 4:1 acetone:olive oil on day-5. An identical segment of the ear was measured immediately before challenge and 24 hours later with an engineer's micrometer. Ear swelling was expressed as the difference in ear thickness before and after challenge in units of 10^-4 inches ± SEM. Percent suppression was calculated as: [formula] Compounds were administered orally from day-2 through day-6 and were prepared in 0.25% Methocel® (Dow Chemical Co.). Control animals received only vehicle (0.25% Methocel®). Negative controls were not sensitized on days 0 and 1 but were ear challenged on day-5. Ten mice were used per group.
Contact sensitivity to DNFB is a form of delayed-type hypersensitivity which has been extensively studied to gain an understanding of the regulation of immunologic processes (Claman et al. (1980), Immunological Rev. 50:105-132). This reaction is mediated by T lymphocytes that become sensitized to antigen by proliferating and developing into mature effector cells (Claman et al. (1980), Immunological Rev. 50:105-132). This cell-mediated immune response (T-cell mediated immunity) is central to many disease states such as organ transplantation rejection and graft versus host disease (Benacerraf and Unanue (1979), Textbook of Immunology, Williams & Wilkins Co.; Eisen (1980), Immunology, An Introduction to Molecular and Cellular Principles of the Immune Responses, Harper & Row, Inc.; Loveland and McKenzie (1982), Immunology 46:313-320; Gallin et al. (1988), Inflammation, Basic Principles and Clinical Correlates, Raven Press). […]

`Cn1cnc([N+](=O)[O-])c1Sc1ncnc2nc[nH]c12` [azathioprine]: the “Significant clinically observed toxicities” value in data set [1] was “hepatoxicity”.
Consider `O=C([O-])c1c2c(nc3ccc(F)cc13)-c1ccc(-c3ccccc3)cc1CC2.[Na+]` [Example 12, 5,6-dihydro-9-fluoro-3-phenylbenz-[c]acridine-7-carboxylic acid, sodium salt], for which the IC50 in data set [2] (Homo sapiens, Lymphocyte, 6 days incubation, 3H-thymidine pulse 18 hours prior to harvest) stood at 65 nM. Moreover, the “human mixed lymphocyte reaction (in words)” value in data set [2] (statement in words, compared with CSA) is on record as “comparable to CSA”. The “% Suppression” value in data set [3] (20.0 mg/kg orally, day-2 through day-6, of ear swelling) stood at 99.75%. Further, the “Ear Swelling (increase in ear thickness from day 5 to day 6)” value in data set [3] (20.0 mg/kg orally, day-2 through day-6, units ± SEM, ten mice per group, 24 hours after challenge) is 2.44 ± 1.62 10^-4 inches. In data set [3] (statement in words), the “immunosuppressive activity (in words)” value is reported as “have immunosuppressive activity”.
